In patent US6552048B2, “Sulfonylcarboxamide derivatives, process for their preparation and their use as pharmaceuticals” (Aventis Pharma Deutschland GmbH, priority 1999, dated 2003):

Columns and labels:
[1] = system: human LDL receptor gene promoter region coupled to firefly Luciferase reporter gene in Hep-G2 cell line; test: In vitro determination of LDL receptor induction using the Luciferase assay; assay type: cell-based; settings: for LDL-receptor induction in %, compared with control: comparative test
Protocol: 1) In vitro Determination of LDL Receptor Induction Using the Luciferase Assay
LDL-receptor induction is determined using the Luciferase assay as follows: for this purpose, a regulatory DNA fragment (4 kb) of the human LDL receptor gene which contains the complete promoter region is coupled to the firefly Luciferase reporter gene and stably transfixed into a Hep-G2 cell line. Cells from this line were seeded out on collagen-coated 96-well plates in MEM (minimum essential medium). After 24 hours in culture, the test substances, dissolved in DMSO, were added in final concentrations of 10 nM to 10 μM (final DMSO concentration=2%). The substances were incubated for 12-18 hours overnight (4 wells/conc. in each case), then D-luciferin was added as substrate for the Luciferase, and the luminescence was measured. The measured luminescence as a percentage of the control (control=100%) incubated only with DMSO indicates the extent of the relative LDL-receptor induction (Table 2).
Further details of the method are described in: Current Protocols in Molecular Biology, F. M. Ausubel, R. Brent, R. E. Kingston, D. D. Moore, J. G. Seidman, J. A. Smith and Kevin Struhl editors, J. Wiley and Sons Inc., U.S.A.
A comparative test was carried out by the Luciferase assay described above using 2,4-dichloro-5-(3,5-dimethylpiperidinosulfamoyl)benzoic acid and the compound from Example 42. [drawing 8]

[2] = system: hyperlipidemic hamsters; test: In vivo determination of reduction in LDL cholesterol in hyperlipemic hamsters; design: species or system male Syrian hamsters; settings: vs placebo-treated control
Excerpt: 2) In vivo Determination of Reduction in LDL Cholesterol in Hamsters.
Cholesterol-lowering effect of LDL-receptor inducers in hyperlipemic hamsters
In this animal experiment, the effect of LDL-receptor inducers after bolus administration to hamsters on a lipid-rich diet was investigated.
The test animals used were male Syrian hamsters (Charles River) with an average body weight of 100-120 g at the start of adaptation. The animals were divided into groups (n=6) on the basis of body weight. Severe hyperlipidemia was induced by feeding with a diet supplemented with 15% butter and 3% cholesterol. The treatment started after preliminary feeding for 2 weeks. The test substances were administered orally by gavage once a day over a period of 10 days. The plasma lipid level was analyzed after 10 days.

[3] = test compound 1.5 μM, control (DMSO only)=100%, Hep-G2 reporter line
[4] = test compound 0.15 μM, control (DMSO only)=100%, Hep-G2 reporter line
[5] = test compound 0.05 μM, control (DMSO only)=100%, Hep-G2 reporter line
[6] = 20 mg/kg p.o. once a day for 10 days
[7] = 10 mg/kg p.o. once a day for 10 days
[8] = 40 mg/kg p.o. once a day for 10 days
[9] = test compound 0.15 μM, control (DMSO only)=100%, Hep-G2 reporter line, 0.15 µM

Structure (SMILES): CN1CCN(c2cc(NCCCc3ccccc3)c(S(=O)(=O)N(C)c3ccccc3)cc2C(=O)N(C)c2ccccc2)CC1 [Example 2]
- LDL-receptor induction (% of control) [1, 3]: 225% (1.5 μM)

Structure (SMILES): CN1CCN(c2cc(NCCc3ccccc3)c(S(=O)(=O)N(C)c3ccccc3)cc2C(=O)N(C)c2ccccc2)CC1 [Example 3]
- LDL-receptor induction (% of control) [1, 3]: 276% (1.5 μM)

Structure (SMILES): CN1CCN(c2cc(NC3CCN(Cc4ccccc4)CC3)c(S(=O)(=O)N(C)c3ccccc3)cc2C(=O)N(C)c2ccccc2)CC1 [Example 4]
- LDL-receptor induction (% of control) [1, 4]: 190% (0.15 μM)

Structure (SMILES): CN1CCN(c2cc(N3CCC(Cc4ccccc4)CC3)c(S(=O)(=O)N(C)c3ccccc3)cc2C(=O)N(C)c2ccccc2)CC1 [Example 9]
- LDL-receptor induction (% of control) [1, 4]: 170% (0.15 μM)

Structure (SMILES): CN1CCN(c2cc(NC3CCN(Cc4ccccc4)CC3)c(S(C)(=O)=O)cc2C(=O)N(C)c2ccccc2)CC1 [Example 14]
- LDL-receptor induction (% of control) [1, 3]: 176% (1.5 μM)

Structure (SMILES): CN(C(=O)c1cc(S(=O)(=O)N(C)c2ccccc2)c(N2CCC(Cc3ccccc3)CC2)cc1NCCN1CCCC1)c1ccccc1 [Example 22]
- LDL-receptor induction (% of control) [1, 4]: 224% (0.15 μM)

Structure (SMILES): CN(C(=O)c1cc(S(=O)(=O)N(C)c2ccccc2)c(N2CCC(c3ccccc3)CC2)cc1NCCN1CCCC1)c1ccccc1 [Example 25]
- LDL-receptor induction (% of control) [1, 5]: 152%
- LDL-receptor induction (% of control) [1, 3]: 346%

Structure (SMILES): CN1CCN(c2cc(N3CCC(Cc4ccccc4)CC3)c(S(C)(=O)=O)cc2C(=O)N2CCCCC2)CC1 [Example 30]
- LDL-receptor induction (% of control) [1, 4]: 199%
- LDL-receptor induction (% of control) [1, 3]: 255%

Structure (SMILES): COCCCNC(=O)c1cc(S(C)(=O)=O)c(N2CCC(c3ccccc3)CC2)cc1N1CCN(C)CC1 [Example 34]
- LDL-receptor induction (% of control) [1, 4]: 210%
- LDL-receptor induction (% of control) ([1]; test compound 4 μM, control (DMSO only)=100%, Hep-G2 reporter line): 291%

Structure (SMILES): CN1CCN(c2cc(N3CCC(c4ccccc4)CC3)c(S(=O)(=O)N3CCCCC3)cc2C(=O)N2CCCCC2)CC1 [Example 37]
- LDL-receptor induction (% of control) [1, 4]: 204%
- LDL-receptor induction (% of control) [1, 3]: 227%
- Relative change in plasma LDL cholesterol [2, 6]: −31%
- Relative change in plasma total cholesterol [2, 6]: −21%
- Relative change in plasma triglycerides [2, 6]: −46%

Structure (SMILES): CCN(CC)C(=O)c1cc(S(=O)(=O)Cc2ccccc2)c(N2CCC(c3ccccc3)CC2)cc1N(CC)CCN(C)C [Example 42, 2-[(2-Dimethylaminoethyl)ethylamino]-N,N-diethyl-5-phenylmethane-sulfonyl-4-(4-phenylpiperidin-1-yl)benzamide]
- activity at 0.05 µM ([1]; Homo sapiens, HepG2, test compound 0.05 μM, control (DMSO only)=100%, Hep-G2 reporter line): 149%
- LDL-receptor induction in %, compared with control ([1]; 0.05 μM): 204%
- LDL-receptor induction in %, compared with control ([1]; 0.15 μM): 219%
- LDL-receptor induction in %, compared with control ([1]; 1.5 μM): 250%
- LDL-receptor induction in %, compared with control ([1]; 4 μM): 278%

Structure (SMILES): CCCCCNC(=O)c1cc(S(C)(=O)=O)c(N2CCC(Cc3ccccc3)CC2)cc1NCCN1CCCC1 [Example 53]
- LDL-receptor induction (% of control) [1, 5]: 197%
- LDL-receptor induction (% of control) [1, 4]: 221%
- Relative change in plasma LDL cholesterol [2, 7]: −52%
- Relative change in plasma total cholesterol [2, 7]: −7%
- Relative change in plasma triglycerides [2, 7]: +21%
- Relative change in plasma LDL cholesterol [2, 6]: −57%
- Relative change in plasma total cholesterol [2, 6]: −16%
- Relative change in plasma triglycerides [2, 6]: −11%
- Relative change in plasma LDL cholesterol [2, 8]: −58%
- Relative change in plasma total cholesterol [2, 8]: −17%
- Relative change in plasma triglycerides [2, 8]: −23%

Structure (SMILES): CCCCCNC(=O)c1cc(S(C)(=O)=O)c(N2CCC(c3ccccc3)CC2)cc1NCCN1CCCC1 [Example 54]
- LDL-receptor induction (% of control) [1, 9]: 223% (0.15 μM)

Structure (SMILES): COCCCNC(=O)c1cc(S(C)(=O)=O)c(N2CCC(Cc3ccccc3)CC2)cc1NCCN1CCCC1 [Example 57]
- LDL-receptor induction (% of control) [1, 4]: 222% (0.15 μM)

Structure (SMILES): COCCCNC(=O)c1cc(S(C)(=O)=O)c(N2CCC(Cc3ccccc3)CC2)cc1N(C)CCN(C)C [Example 62]
- LDL-receptor induction (% of control) [1, 5]: 205% (0.05 μM)

Structure (SMILES): CN(C)CCN(C)c1cc(N2CCC(Cc3ccccc3)CC2)c(S(C)(=O)=O)cc1C(=O)N1CCCCC1 [Example 67]
- LDL-receptor induction (% of control) [1, 4]: 203% (0.15 μM)

Structure (SMILES): CCCCCNC(=O)c1cc(S(=O)(=O)Cc2ccccc2)c(N2CCC(c3ccc(F)cc3)CC2)cc1N(CC)CCN(C)C [Example 76]
- LDL-receptor induction (% of control) [1, 4]: 244% (0.15 μM)

Structure (SMILES): CCCCCNC(=O)c1cc(S(=O)(=O)Cc2ccccc2)c(N2CCC(c3ccc(C)cc3)CC2)cc1N(CC)CCN(C)C [Example 78]
- LDL-receptor induction (% of control) [1, 4]: 200% (0.15 μM)

Structure (SMILES): CCN(CC)C(=O)c1cc(S(=O)(=O)Cc2ccc(F)cc2F)c(N2CCC(c3ccccc3)CC2)cc1N(CC)CCN(C)C [Example 82]
- LDL-receptor induction (% of control) [1, 4]: 227% (0.15 μM)

Structure (SMILES): CCN(CC)C(=O)c1cc(S(=O)(=O)Cc2ccc(C)cc2)c(N2CCC(c3ccccc3)CC2)cc1NCCN1CCCC1 [Example 83]
- LDL-receptor induction (% of control) [1, 4]: 212% (0.15 μM)

Structure (SMILES): CCN(CC)C(=O)c1cc(S(=O)(=O)Cc2cccc(OC)c2)c(N2CCC(c3ccccc3)CC2)cc1NCCN1CCCC1 [Example 84]
- LDL-receptor induction (% of control) [1, 5]: 240% (0.05 μM)

Structure (SMILES): CCN(CC)C(=O)c1cc(S(=O)(=O)Cc2cccc(OC(F)(F)F)c2)c(N2CCC(c3ccccc3)CC2)cc1NCCN1CCCC1 [Example 91]
- LDL-receptor induction (% of control) [1, 5]: 231% (0.05 μM)

Structure (SMILES): CCN(CC)C(=O)c1cc(S(=O)(=O)Cc2cc(OC)cc(OC)c2)c(N2CCC(c3ccccc3)CC2)cc1N(CC)CCN(C)C [Example 96]
- LDL-receptor induction (% of control) [1, 5]: 196% (0.05 μM)

Structure (SMILES): CCN(CCN(C)C)c1cc(N2CCC(c3ccccc3)CC2)c(S(=O)(=O)Cc2ccccc2)cc1C(=O)NCCCCCO [Example 107]
- LDL-receptor induction (% of control) [1, 5]: 288% (0.05 μM)

Structure (SMILES): CCN(CC)C(=O)c1cc(S(=O)(=O)Cc2ccc(C(F)(F)F)cc2)c(N2CCC(c3ccccc3)CC2)cc1N(CC)CCN(C)C [Example 113]
- LDL-receptor induction (% of control) [1, 5]: 217% (0.05 μM)

Structure (SMILES): CCN(CC)C(=O)c1cc(S(=O)(=O)Cc2ccc(C#N)cc2)c(N2CCC(c3ccccc3)CC2)cc1N(CC)CCN(C)C [Example 116]
- LDL-receptor induction (% of control) [1, 5]: 235% (0.05 μM)

Structure (SMILES): CCCCCNC(=O)c1cc(S(C)(=O)=O)c(N2CCC(c3ccccc3)CC2)cc1NCCN1CCCC1.CS(=O)(=O)O [Example 141, 2-[NH-Ethyl-N-pyyrolidinyl]-NH-pentyl-5-methylsulfonyl-4-(4-phenylpiperidin-1-yl)benzamide]
- LDL-receptor induction (% of control) [1, 4]: 280% (0.15 μM)

Structure (SMILES): CCCCCNC(=O)c1cc(S(C)(=O)=O)c(N2CCC(c3ccccc3)CC2)cc1NCCN1CCCC1.Cc1ccc(S(=O)(=O)O)cc1 [Example 142, 2-[NH-Ethyl-N-pyrrolidinyl]-NH-pentyl-5-methylsulfonyl-4-(4-phenylpiperidin-1-yl)benzamide]
- LDL-receptor induction (% of control) [1, 4]: 281% (0.15 μM)

Structure (SMILES): CCCCCNC(=O)c1cc(S(C)(=O)=O)c(N2CCC(c3ccccc3)CC2)cc1NCCN1CCCC1 [Example 143, 2-[NH-Ethyl-N-pyrrolidinyl]-NH-pentyl-5-methylsulfonyl-4-(4-phenylpiperidin-1-yl)benzamide]
- LDL-receptor induction (% of control) [1, 9]: 308% (0.15 μM)

Structure (SMILES): CC1CC(C)CN(S(=O)(=O)c2cc(C(=O)O)c(Cl)cc2Cl)C1 (stereo not drawn) [reference compound]
- LDL-receptor induction in %, compared with control ([1]; 0.05 μM): 94%
- LDL-receptor induction in %, compared with control ([1]; 0.15 μM): 90%
- LDL-receptor induction in %, compared with control ([1]; 1.5 μM): 90%
- LDL-receptor induction in %, compared with control ([1]; 4 μM): 100%
